From ChEMBL document CHEMBL1137802, “Specific antioxidant activity of caffeoyl derivatives and other natural phenolic compounds: LDL protection against oxidation and decrease in the proinflammatory lysophosphatidylcholine production” (J Nat Prod, 2001)

Tests used:
Type in all cases: functional, cell-free
[1] = Antioxidant activity against Cu2+-induced lipid peroxidation in human plasma LDL preincubated for 1 hr before Cu2+ challenge
[2] = Antioxidant activity against Cu2+-induced lipid peroxidation in human plasma LDL assessed as conjugated diene formation at 5 umol/L preincubated for 1 hr before Cu2+ challenge measured after 60 mins
[3] = Antioxidant activity against Cu2+-induced lipid peroxidation in human plasma LDL assessed as conjugated diene formation at 5 umol/L preincubated for 1 hr before Cu2+ challenge measured after 150 mins
[4] = Antioxidant activity against Cu2+-induced lipid peroxidation in human plasma LDL assessed as conjugated diene formation at 5 umol/L preincubated for 1 hr before Cu2+ challenge measured after 270 mins
[5] = Antioxidant activity against Cu2+-induced lipid peroxidation in human plasma LDL assessed as conjugated diene formation at 5 umol/L preincubated for 1 hr before Cu2+ challenge measured after 360 mins
[6] = Antioxidant activity against Cu2+-induced lipid peroxidation in human plasma LDL assessed as lysophosphatidylcholine formation at 10 umol/L preincubated for 1 hr before Cu2+ challenge measured after 360 mins
[7] = Antioxidant activity against Cu2+-induced lipid peroxidation in human plasma LDL assessed as vitamin E consumption at 10 umol/L preincubated for 1 hr before Cu2+ challenge measured after 15 mins
[8] = Antioxidant activity against Cu2+-induced lipid peroxidation in human plasma LDL assessed as vitamin E consumption at 10 umol/L preincubated for 1 hr before Cu2+ challenge measured after 30 mins
[9] = Antioxidant activity against Cu2+-induced lipid peroxidation in human plasma LDL assessed as vitamin E consumption at 10 umol/L preincubated for 1 hr before Cu2+ challenge measured after 45 mins
[10] = Antioxidant activity against Cu2+-induced lipid peroxidation in human plasma LDL assessed as vitamin E consumption at 10 umol/L preincubated for 1 hr before Cu2+ challenge measured after 270 mins
[11] = Antioxidant activity against Cu2+-induced lipid peroxidation in human plasma LDL assessed as maximal compound concentration at 10 umol/L preincubated for 1 hr before Cu2+ challenge measured after 30 mins relative to compound present at 0 min
[12] = Antioxidant activity against Cu2+-induced lipid peroxidation in human plasma LDL assessed as maximal compound concentration at 10 umol/L preincubated for 1 hr before Cu2+ challenge measured after 120 mins relative to compound present at 0 min
[13] = Antioxidant activity against Cu2+-induced lipid peroxidation in human plasma LDL assessed as conjugated diene formation at 20 umol/L preincubated for 1 hr before Cu2+ challenge measured after 90 mins
[14] = Antioxidant activity against Cu2+-induced lipid peroxidation in human plasma LDL assessed as conjugated diene formation at 20 umol/L preincubated for 1 hr before Cu2+ challenge measured after 120 mins
[15] = Antioxidant activity against Cu2+-induced lipid peroxidation in human plasma LDL assessed as conjugated diene formation at 20 umol/L preincubated for 1 hr before Cu2+ challenge measured after 270 mins
[16] = Antioxidant activity against Cu2+-induced lipid peroxidation in human plasma LDL assessed as conjugated diene formation at 20 umol/L preincubated for 1 hr before Cu2+ challenge measured after 360 mins
[17] = Antioxidant activity against Cu2+-induced lipid peroxidation in human plasma LDL assessed as lysophosphatidylcholine formation at 20 umol/L preincubated for 1 hr before Cu2+ challenge measured after 120 mins
[18] = Antioxidant activity against Cu2+-induced lipid peroxidation in human plasma LDL assessed as lysophosphatidylcholine formation at 20 umol/L preincubated for 1 hr before Cu2+ challenge measured after 150 mins
[19] = Antioxidant activity against Cu2+-induced lipid peroxidation in human plasma LDL assessed as lysophosphatidylcholine formation at 20 umol/L preincubated for 1 hr before Cu2+ challenge measured after 180 mins
[20] = Antioxidant activity against Cu2+-induced lipid peroxidation in human plasma LDL assessed as lysophosphatidylcholine formation at 20 umol/L preincubated for 1 hr before Cu2+ challenge measured after 360 mins
[21] = Antioxidant activity against Cu2+-induced lipid peroxidation in human plasma LDL assessed as vitamin E consumption at 20 umol/L preincubated for 1 hr before Cu2+ challenge measured after 30 mins
[22] = Antioxidant activity against Cu2+-induced lipid peroxidation in human plasma LDL assessed as vitamin E consumption at 20 umol/L preincubated for 1 hr before Cu2+ challenge measured after 45 mins
[23] = Antioxidant activity against Cu2+-induced lipid peroxidation in human plasma LDL assessed as vitamin E consumption at 20 umol/L preincubated for 1 hr before Cu2+ challenge measured after 60 mins
[24] = Antioxidant activity against Cu2+-induced lipid peroxidation in human plasma LDL assessed as maximal compound concentration at 20 umol/L preincubated for 1 hr before Cu2+ challenge measured after 120 mins relative to compound present at 0 min
[25] = Antioxidant activity against Cu2+-induced lipid peroxidation in human plasma LDL assessed as vitamin E consumption at 5 umol/L preincubated for 1 hr before Cu2+ challenge measured after 15 mins
[26] = Antioxidant activity against Cu2+-induced lipid peroxidation in human plasma LDL assessed as vitamin E consumption at 5 umol/L preincubated for 1 hr before Cu2+ challenge measured after 150 mins
[27] = Antioxidant activity against Cu2+-induced lipid peroxidation in human plasma LDL assessed as vitamin E consumption at 5 umol/L preincubated for 1 hr before Cu2+ challenge measured after 180 mins
[28] = Antioxidant activity against Cu2+-induced lipid peroxidation in human plasma LDL assessed as vitamin E consumption at 5 umol/L preincubated for 1 hr before Cu2+ challenge measured after 210 mins
[29] = Antioxidant activity against Cu2+-induced lipid peroxidation in human plasma LDL assessed as maximal compound concentration at 5 umol/L preincubated for 1 hr before Cu2+ challenge measured after 45 mins relative to compound present at 0 min
[30] = Antioxidant activity against Cu2+-induced lipid peroxidation in human plasma LDL assessed as maximal compound concentration at 5 umol/L preincubated for 1 hr before Cu2+ challenge measured after 60 mins relative to compound present at 0 min
[31] = Antioxidant activity against Cu2+-induced lipid peroxidation in human plasma LDL assessed as maximal compound concentration at 5 umol/L preincubated for 1 hr before Cu2+ challenge measured after 120 mins relative to compound present at 0 min
[32] = Antioxidant activity against Cu2+-induced lipid peroxidation in human plasma LDL assessed as maximal compound concentration at 5 umol/L preincubated for 1 hr before Cu2+ challenge measured after 180 mins relative to compound present at 0 min
[33] = Antioxidant activity against Cu2+-induced lipid peroxidation in human plasma LDL assessed as conjugated diene formation at 10 umol/L preincubated for 1 hr before Cu2+ challenge measured after 180 mins
[34] = Antioxidant activity against Cu2+-induced lipid peroxidation in human plasma LDL assessed as lysophosphatidylcholine formation at 10 umol/L preincubated for 1 hr before Cu2+ challenge measured after 120 mins

SMILES: CC(C)(Sc1cc(C(C)(C)C)c(O)c(C(C)(C)C)c1)Sc1cc(C(C)(C)C)c(O)c(C(C)(C)C)c1
- Activity [1]: 5.8 µM/L
- Activity [2]: 4.1%
- Activity [3]: 78.3%
- Activity [4]: 87.1%
- Activity [5]: 100%
- Activity [6]: 19.2%
- Activity [7]: 51.8%
- Activity [8]: 17.8%
- Activity [9]: 11%
- Activity [10]: 0%
- Activity [11]: 82%
- Activity [12]: 37.2%
- Activity [13]: 0.7%
- Activity [14]: 0.2%
- Activity [15]: 2.6%
- Activity [16]: 2.3%
- Activity [17]: 1%
- Activity [18]: 1.3%
- Activity [19]: 1.5%
- Activity [20]: 1.9%
- Activity [21]: 19.9%
- Activity [22]: 7.5%
- Activity [23]: 5.5%
- Activity [24]: 43.2%
- Activity [25]: 45%
- Activity [26]: 0%
- Activity [27]: 0%
- Activity [28]: 0%
- Activity [29]: 114%
- Activity [30]: 118%
- Activity [31]: 56.5%
- Activity [32]: 45.3%
- Activity [33]: 77.3%
- Activity [34]: 1.3%
